The values below come from patent US5770383A, “Tricyclic retinoids, methods for their production and use” (Ligand Pharmaceuticals, Inc., priority 1995, dated 1998).

For test [1], the system named is RAR and RXR receptors. Nature of the test: Co-transfection assay, RARs and RXRs taken together. The format is cell-based. As to the method: (§1) Utilizing the "cis-trans" or "co-transfection" assay described by Evans et al., Science, 240:889-95 (May 13, 1988), the disclosure of which is herein incorporated by reference, the retinoid compounds of the present invention were tested and found to have strong, specific activity as either selective RAR agonists, selective RXR agonists, or as pan-agonist activators of both RAR and RXR receptors. This assay is described in further detail in U.S. Pat. Nos. 4,981,784 and 5,071,773, the disclosures of which are incorporated herein by reference.
(§2) The co-transfection assay provides a method for identifying functional agonists which mimic, or antagonists which inhibit, the effect of native hormones, and quantifying their activity for responsive IR proteins. In this regard, the co-transfection assay mimics an in vivo system in the laboratory. Importantly, activity in the co-transfection assay correlates very well with known in vivo activity, such that the co-transfection assay functions as a qualitative and quantitative predictor of a tested compounds Ln vivo pharmacology. See, e.g., T. Berger et al. 41 J. Steroid Biochem. Molec. Biol. 733 (1992), the disclosure of which is herein incorporated by reference.
(§3) In the co-transfection assay, a cloned cDNA for an IR (e.g., human RARα, RARβ, RXRγ) under the control of a constitutive promoter (e.g., the SV 40 promoter) is introduced by transfection (a procedure to induce cells to take up foreign genes) into a background cell substantially devoid of endogenous IRs. This introduced gene directs the recipient cells to make the IR protein of interest. A second gene is also introduced (co-transfected) into the same cells in conjunction with the IR gene. This second gene, comprising the cDNA for a reporter protein, such as firefly luciferase (LUC), controlled by an appropriate hormone responsive promoter containing a hormone response element (HRE). This reporter plasmid functions as a reporter for the transcription-modulating activity of the target IR. Thus, the reporter acts as a surrogate for the products (mRNA then protein) normally expressed by a gene under control of the target receptor and its native hormone.
(§4) The co-transfection assay can detect small molecule agonists or antagonists of target IRs. Exposing the transfected cells to an agonist ligand compound increases reporter activity in the transfected cells. This activity can be conveniently measured, e.g., by increasing luciferase production, which reflects compound-dependent, IR-mediated increases in reporter transcription. […] . Increasing concentrations of a suspected antagonist will decrease the reporter signal (e.g., luciferase production). The co-transfection assay is therefore useful to detect both agonists and antagonists of specific IRs. Furthermore, it determines not only whether a compound interacts with a particular IR, but whether this interaction mimics (agonizes) or blocks (antagonizes) the effects of the native regulatory molecules on target gene expression, as well as the specificity and strength of this interaction.
To determine RAR and/or RXR agonist activity of the compounds of the present invention, the CV-1 cells were transiently transfected by calcium phosphate coprecipitation according to the procedure of Berger et al., 41 J.Steroid Biochem. Mol. Biol., 733 (1992) with the following receptor expressing plasmids: pRShRARα: Giguere et al., 330 Nature, 624 (1987); pRShRARβ and pRShRARγ, Ishikawa et al., 4 Mol. Endocrin., 837 (1990); pRShRXRα, Mangelsdorf et al., 345 Nature, 224 (1990); and pRSmRXRβ and pRSmRXRγ, Mangelsdorf et al., 6 Genes & Devel., 329 (1992), the disclosures of which are herein incorporated by reference.

Test [2] deals with RARs. In words: Co-transfection assay, RARs taken together. The following applies: Table 1. The format is cell-based. Here is the method: as §1, §2, §3
as §4, with “Furthermore, it determines not only whether a compound interacts with a particular IR, but whether this interaction mimics (agonizes) or blocks (antagonizes) the effects of the native regulatory molecules on target gene expression, as well as the specificity and strength of this interaction.” left out

Test [3] deals with TPA induction of ODC. To be noted: literature; cited from earlier work.
Test [4] concerns AML-193 cell line. Nature of the test: Incorporation of 3H-thymidine, AML-193. To be noted: 96 h, read-out: TdR IC50.

As for `CC(/C=C/CC1CCCc2cc3c(cc21)C(C)(C)CCC3(C)C)=C\C(=O)O` (racemic) [Compound 124b, (2E,4E)-3-Methyl-6-(1,2,3,4,5,6,7,8-octahydro-5,5,8,8-tetramethylanthracen-1-yl)hexa-2,4-dienoic acid], in test [1], the “selectivity / potency profile on RARs and RXRs in words” value (“selectivity / potency profile” for short) is “superior potency profiles to that of the known RXR active pan-agonist compound 9-cis retinoic acid”. As to `CC(/C=C/C=C1/CCCc2cc3c(cc21)C(C)(C)CCC3(C)C)=C\C(=O)O` [Compound 101b, (2E,4E)-3-Methyl-6-[(Z)-3,4,5,6,7,8-hexahydro-5,5,8,8-tetramethyl-2H-anthracen-1-ylidene]hexa-2,4-dienoic acid], the “RAR activity in words” value in test [2] is recorded as “extremely potent RAR active”. Further, in test [1], the “selectivity / potency profile” value is reported as “superior potency profiles to that of the known RXR active pan-agonist compound 9-cis retinoic acid”.

Turning to `CC(/C=C/C=C1/CC(C)(C)Oc2cc3c(cc21)C(C)(C)CCC3(C)C)=C\C(=O)O` [Compound 104b, (2E,4E)-3-Methyl-6-(2,3,6,7,8,9-hexahydro-2,2,6,6,9,9-hexamethylbenzo[b]-chromen-4-ylidene)-hexa-2,4-dienoic acid], the “selectivity / potency profile” value in test [1] was “potent and selective RXR compound”.

Regarding `CC(/C=C/C=C1\CCCc2cc3c(cc21)C(C)(C)CCC3(C)C)=C\C(=O)O` [Compound 109b, (2E,4E)-3-Methyl-6-[(E)-3,4,5,6,7,8-hexahydro-5,5,8,8-tetramethyl-2H-anthracen-1-ylidene]hexa-2,4-dienoic acid], in test [2], the “RAR activity in words” value is reported as “extremely potent RAR active”. For the same compound, the “selectivity / potency profile” value in test [1] is reported as “RAR selective”. In the same order, the values of `CC(/C=C/C=C1\CCOc2cc3c(cc21)C(C)(C)CCC3(C)C)=C\C(=O)O` [Compound 119b, (2E,4E)-3-Methyl-6-[(E)-2,3,6,7,8,9-hexahydro-6,6,9,9-tetramethyl-benzo[g]chromen-4-ylidene]hexa-2,4-dienoic acid] are “extremely potent RAR active” and “RAR selective”. In the same order, the values of `CC(/C=C/C=C1/CCOc2cc3c(cc21)C(C)(C)CCC3(C)C)=C\C(=O)O` [Compound 144b] are “extremely potent RAR active” and “superior potency profiles to that of the known RXR active pan-agonist compound 9-cis retinoic acid”. With `CCCCCCCCCCCCCC(=O)O[C@@H]1[C@@H](C)[C@@]2(O)[C@@H](C=C(CO)C[C@]3(O)C(=O)C(C)=C[C@@H]23)[C@@H]2C(C)(C)[C@]12OC(C)=O` [TPA, 12-0-tetradecanoylphorbor-13-acetate], the “effect on ODC activity, in words” value in test [3] was “induces ODC activity”. In the case of `C/C(=C\c1ccc(C(=O)O)cc1)c1ccc2c(c1)C(C)(C)CCC2(C)C` [TTNPB, (E)-4-[2-(5,6,7,8-tetrahydro-5,5,8,8-tetramethyl-2-napthalenyl)-1-propenyl]benzoic acid], the IC50 (commonly the concentration needed to halve the response being measured) in test [4] worked out at 0.1 nM. On to `CC1=C(/C=C/C(C)=C/C=C/C(C)=C/C(=O)O)C(C)(C)CCC1` [retinoic acid], for which the “effect on ODC activity, in words” value in test [3] is “inhibits this induction of ODC by TPA”.
